The record followed here is patent US8557816B2, “Aurora kinase modulators and method of use” (Amgen Inc., priority 2007, dated 2013).

One test deals with T1, AuroraB (Homo sapiens, UniProt Q96GD4).
T1 construct: 20 μL of AuroraB FL H is for a final volume of 41 μL; His
Nature of the test: AuroraB Homogeneous Time Resolved Fluorescent (HTRF) kinase assay. In kind it is biochemical. The following applies: average; read-out: AurB_IC50_IP (uM Avg). In a few lines: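 Full-length His-tagged kinase phosphorylates biotinylated Histone H3 (0.1 μM final) with ATP in pH 7.5 HEPES containing MgCl, MnCl, DTT and BSA for about 90 min. EDTA-containing detection mix with SA-APC and Eu-anti-phosphoHistone H3 then equilibrated about 60 min; HTRF read with 320 nm excitation, emissions 615/655 nm.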
On the technique in general: TR-FRET usually uses a lanthanide donor and a delayed reading to cut background.

The next test concerns the target T2, AuroraA-TPX2 (Homo sapiens, UniProt O14965).
T2 construct: 20 μL of AuroraA-TPX2 KD GST for a final volume of about 41 μL; GST
T2 sequence (O14965 133-383 limits assumed): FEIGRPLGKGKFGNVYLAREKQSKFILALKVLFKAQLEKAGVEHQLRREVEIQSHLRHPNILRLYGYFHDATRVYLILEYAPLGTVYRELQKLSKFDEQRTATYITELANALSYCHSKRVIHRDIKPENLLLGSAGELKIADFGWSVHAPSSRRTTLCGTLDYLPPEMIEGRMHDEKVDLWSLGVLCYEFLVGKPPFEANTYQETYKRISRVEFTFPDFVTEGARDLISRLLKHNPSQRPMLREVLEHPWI
T2 sequence (Q9ULW0 1-43 partner limits assumed): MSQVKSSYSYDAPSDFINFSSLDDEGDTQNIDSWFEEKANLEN
Nature of the test: AuroraA-TPX2 Homogeneous Time Resolved Fluorescent (HTRF) kinase assay. The format is biochemical. The settings on record: average; read-out: AurA_IC50_IP (uM Avg). Put shortly:
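HTRF read-out (Eu 615 nm to APC 655 nm) of phosphorylated biotin-PLK, detected with 0.02 nM europium anti-phosphoPLK antibody and 0.0005 mg/mL SA-APC after overnight equilibration.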

The structures appear in SMILES notation.

T1 sequence (Q96GD4 whole entry): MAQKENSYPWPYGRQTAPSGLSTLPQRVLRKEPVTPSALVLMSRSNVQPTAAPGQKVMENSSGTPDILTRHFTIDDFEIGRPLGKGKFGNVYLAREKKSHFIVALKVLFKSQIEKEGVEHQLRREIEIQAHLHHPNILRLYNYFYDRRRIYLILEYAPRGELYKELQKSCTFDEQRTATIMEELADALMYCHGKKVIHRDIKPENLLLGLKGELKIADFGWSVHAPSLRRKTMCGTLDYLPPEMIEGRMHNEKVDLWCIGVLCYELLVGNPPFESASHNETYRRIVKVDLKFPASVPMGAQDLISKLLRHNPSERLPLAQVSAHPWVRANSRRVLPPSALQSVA

As for `Clc1ccc(-c2nnc(Nc3ccc(Oc4ccnc5cc(OCc6ccccc6)cnc45)cc3)c3ccccc23)cc1` [compound 610], the IC50 at AuroraB was found to be 0.033 µM; at AuroraA-TPX2, 0.047 µM.
Consider `COc1cnc2c(Oc3ccc(Nc4nnc(-c5ncco5)c5ccccc45)cc3)ccnc2c1` [compound 200, N-(4-((7-(methyloxy)-1,5-naphthyridin-4-yl)oxy)phenyl)-4-(1,3-oxazol-2-yl)-1-phthalazinamine], for which the IC50 at AuroraB was 0.003 µM; at AuroraA-TPX2, 0.087 µM.
The corresponding values for `COc1cnc2c(Sc3ccc(Nc4nnc(SC)c5ccccc45)cc3)ccnc2c1` [compound 514] are 0.01 µM and 0.189 µM.
As for `COc1cc(OC)c2c(Oc3ccc(Nc4nnc(-c5ccc(Cl)cc5)c5ccccc45)cc3)ncnc2c1` [compound 590], the IC50 amounted to 0.02 µM at AuroraB and 0.027 µM at AuroraA-TPX2.
The like results for `c1ccc(-c2nnc(Nc3ccc(Sc4ncnc5ccccc45)cc3)c3ccccc23)cc1` [compound 561] were, in that order, above 5 µM and above 25 µM.
Take `COCCOc1nnc(Nc2ccc(Sc3ccnc4cc(OC)cnc34)cc2)c2ccccc12` [compound 515]: the values for the IC50 on AuroraB and at AuroraA-TPX2 were 0.012 µM and 0.072 µM, respectively.
Turning to `COc1cnc2c(Sc3ccc(Nc4nnc(N5CCn6ccnc6C5)c5ccccc45)cc3)ccnc2c1` [compound 576], the figures for the IC50 at AuroraB and at AuroraA-TPX2 were 0.026 µM and 0.077 µM, respectively.
Turning to `N#Cc1ccc2c(Oc3ccc(Nc4nnc(-c5ccc(C(F)(F)F)cc5)c5ccccc45)cc3)ccnc2c1` [compound 147, 4-((4-((4-(4-(trifluoromethyl)phenyl)-1-phthalazinyl)amino)phenyl)oxy)-7-quinolinecarbonitrile], the IC50 at AuroraB is 0.011 µM; on AuroraA-TPX2, 0.025 µM.
The like results for `COc1cnc2c(N(C)c3ccc(Nc4nnc(-c5cc(C)cs5)c5ccccc45)cc3)ccnc2c1` [compound 247, N-methyl-N-(7-(methyloxy)-1,5-naphthyridin-4-yl)-N′-(4-(4-methyl-2-thienyl)-1-phthalazinyl)-1,4-benzenediamine] were, in that order, 0.032 µM and 0.219 µM.
The like results for `CCc1cc(-c2ccc(Cl)cc2)nnc1Nc1ccc(Oc2ccnc3cc(OC)cnc23)nc1` [compound 275, 6-(4-chlorophenyl)-4-ethyl-N-(6-(7-methoxy-1,5-naphthyridin-4-yloxy)pyridin-3-yl)pyridazin-3-amine] were, in that order, 0.011 µM and 0.156 µM.
The like results for `COCCOc1cc2nccc(Oc3ccc(Nc4nnc(-c5ccccc5)c5ccccc45)cc3)c2cc1OC` [Example 393, N-(4-(6-Methoxy-7-(2-methoxyethoxy)quinolin-4-yloxy)phenyl)-4-phenylphthalazin-1-amine] were, in that order, 0.017 µM and 0.013 µM.
For `COc1cnc2c(Oc3ccc(Nc4nnc(-c5ccc(S(C)(=O)=O)cc5)c5ccccc45)cc3)ccnc2c1` [compound 263, N-(4-((7-(methyloxy)-1,5-naphthyridin-4-yl)oxy)phenyl)-4-(4-(methylsulfonyl)phenyl)-1-phthalazinamine], the IC50 stood at 0.002 µM on AuroraB and 0.036 µM on AuroraA-TPX2.
For the compound `COc1cnc2c(Oc3ccc(Nc4nnc(-c5cc(Cl)cs5)c5ccccc45)cc3)ccnc2c1` [compound 298, 4-(4-chloro-2-thienyl)-N-(4-((7-(methyloxy)-1,5-naphthyridin-4-yl)oxy)phenyl)-1-phthalazinamine], the IC50 at AuroraB is 0.023 µM; at AuroraA-TPX2 it was 0.014 µM.
Consider `COc1cc(OC)c2c(Oc3ccc(Nc4nnc(-c5cc(C)cs5)c5ccccc45)cc3)ccnc2c1` [compound 441], for which the IC50 at AuroraB amounted to 0.135 µM; on AuroraA-TPX2, 0.456 µM.
As for `Fc1cc(F)c2c(Oc3ccc(Nc4nnc(-c5ccccc5)c5ccccc45)cc3)ccnc2c1` [compound 276, N-(4-(5,7-difluoroquinolin-4-yloxy)phenyl)-4-phenylphthalazin-1-amine], the figures for the IC50 at AuroraB and on AuroraA-TPX2 were 0.018 µM and 0.67 µM, respectively.
